pEC50, pIC50: −log10 of the molar value.

Data set [1] addresses T1, purified recombinant human PARP (Homo sapiens, UniProt P09874).
T1 construct: purchased Trevigan (Gaithersburg, Md.)
The data set is described as follows: PARP enzyme assay (IC50). The data set is classed as biochemical. As to conditions: approximate values. As to the method: A convenient method to determine IC50 of a PARP inhibitor compound is a PARP assay using purified recombinant human PARP from Trevigan (Gaithersburg, Md.), as follows: The PARP enzyme assay is set up on ice in a volume of 100 microliters consisting of 100 mM Tris-HCl (pH 8.0), 1 mM MgCl2, 28 mM KCl, 28 mM NaCl, 0.1 mg/ml of DNase I activated herring sperm DNA (Sigma, Mo.), 3.0 micromolar [3H]nicotinamide adenine dinucleotide (470 mci/mmole), 7 micrograms/ml PARP enzyme, and various concentrations of the compounds to be tested. The reaction is initiated by incubating the mixture at 25° C. After 15 minutes of incubation, the reaction is terminated by adding 500 microliters of ice cold 20% (w/v) trichloroacetic acid. The precipitate formed is transferred onto a glass fiber filter (Packard Unifilter-GF/B) and washed three times with ethanol. After the filter is dried, the radioactivity is determined by scintillation counting.

The test system of another data set is P388D1 cells. Kind of data set: H2O2 induced cell death assay (cytoprotective effect, LDH release). The data set is classed as cell-based, murine. Particulars: Mus musculus, approximate values, concentration for 50% reduction of cell death, 2 mM H2O2, 4 h. The method, then:
We used a H2O2 induced cell death assay to determine the cytoprotective effect of PARP inhibitors. P388D1 cells (CCL-46, ATCC), derived from a murine macrophage-like tumor, were maintained in Dulbeco's Modified Eagle Medium (DMEM) with 10% horse serum and 2 mM L-glutamine. The cytotoxicity assay was set up in a 96-well plate. In each well, 190 ul cells were seeded at 2×10^6/ml density. To determine the EC50, the concentration of a compound required to achieve 50% reduction of cell death, a dose response experiment was conducted. PARP inhibitors were added to the media to a final concentration of 0.01, 0.03, 0.1, 0.3, 1, 3, 10, 30 uM. After 15 min incubation with a PARP inhibitor, 5 ul of freshly prepared H2O2 were added to the cells to a final concentration of 2 mM. Cells were returned to 37° C. incubator for 4 h. At the end of incubation, 25 ul of supernatant were sampled from the cell media to determine the level of lactate dehydrogenase (LDH) released from dead cells. The LDH activity was determined by monitoring the rate of decrease of NADH absorbency at 340 nm. The group without drug treatment was used to calculate total cell death due to H2O2 treatment. Each data point was an average of quadruplicate. The EC50 was determined from a dose response curve.
Background: LDH leaks from cells whose membrane has failed.

The test system of data set [2] is ischemia and reperfusion of the heart. Particulars: 1 mg/kg; cited from earlier work.

T1 sequence (P09874 whole entry): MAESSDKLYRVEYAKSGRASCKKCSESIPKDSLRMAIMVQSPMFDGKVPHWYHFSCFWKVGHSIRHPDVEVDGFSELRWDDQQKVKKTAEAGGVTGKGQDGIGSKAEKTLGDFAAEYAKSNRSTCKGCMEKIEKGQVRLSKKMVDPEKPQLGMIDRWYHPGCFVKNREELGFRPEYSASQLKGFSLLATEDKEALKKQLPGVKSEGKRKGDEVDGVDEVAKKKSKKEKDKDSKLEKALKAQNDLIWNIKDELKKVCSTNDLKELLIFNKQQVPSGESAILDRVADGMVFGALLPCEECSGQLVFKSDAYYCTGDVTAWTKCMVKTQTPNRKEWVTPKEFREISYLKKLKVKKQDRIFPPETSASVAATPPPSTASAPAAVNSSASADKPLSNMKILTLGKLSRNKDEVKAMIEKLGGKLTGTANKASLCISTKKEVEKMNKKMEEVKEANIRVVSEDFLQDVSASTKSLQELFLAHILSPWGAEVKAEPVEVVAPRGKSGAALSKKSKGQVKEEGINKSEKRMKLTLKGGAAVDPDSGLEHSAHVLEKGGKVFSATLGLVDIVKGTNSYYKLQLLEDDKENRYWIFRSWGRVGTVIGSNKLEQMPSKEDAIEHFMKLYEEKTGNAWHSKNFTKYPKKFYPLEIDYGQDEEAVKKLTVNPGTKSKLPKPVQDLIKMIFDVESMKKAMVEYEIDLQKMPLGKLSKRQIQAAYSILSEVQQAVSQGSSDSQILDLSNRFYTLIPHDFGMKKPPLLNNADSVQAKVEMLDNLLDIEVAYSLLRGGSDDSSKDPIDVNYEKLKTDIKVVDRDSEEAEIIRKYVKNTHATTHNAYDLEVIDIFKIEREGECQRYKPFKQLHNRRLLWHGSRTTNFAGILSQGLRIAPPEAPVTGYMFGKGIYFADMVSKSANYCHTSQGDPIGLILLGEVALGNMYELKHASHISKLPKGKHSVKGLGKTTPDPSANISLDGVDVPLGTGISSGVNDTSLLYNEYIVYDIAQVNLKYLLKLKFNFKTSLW

A word on the melting point: it is the temperature of the solid-liquid transition. As to `O=c1[nH]nc2c3c(cccc13)Oc1ccc(CN3CCC(N4CCCC4)CC3)cc1-2` [Compound 48, 10-(4-Pyrrolidin-1-yl-piperidin-1-ylmethyl)-2H-7-oxa-1,2-diaza-benzo[de]anthracen-3-one], the melting point lay in the range of 258 to 264 °C. A word on the pIC50: it is the negative decadic logarithm of the IC50, by convention in mol/L. One may read the pEC50 as the EC50 on a negative log10 scale, so that one unit is a factor of ten. For `O=c1[nH]nc2c3c(cccc13)Oc1ccc(CN3CCN(CCOCCO)CC3)cc1-2`, the pIC50 in data set [1] (Table II) was 6.89. The compound also had a pEC50 in the data set on P388D1 cells (Table II) of 7.12.

On to `NNC(=O)C1=Nc2n[nH]c(=O)c3cccc(c23)N1`, for which the pIC50 in data set [1] (Table I) is 7.68. This compound gave a pEC50 with P388D1 cells (Table I) of 6.62. For `NOCc1ccc2c(c1)-c1n[nH]c(=O)c3cccc(c13)O2`, the pIC50 in data set [1] (Table II) was 6.78. Also, the pEC50 with P388D1 cells (Table II) was 6.33. As for `O=C(CCl)OCc1ccc2c(c1)-c1n[nH]c(=O)c3cccc(c13)O2`, the pIC50 in data set [1] (Table II) was 6.75. Turning to `O=c1[nH]nc2c3c(cccc13)Oc1ccc(CN3CCN(CCO)CC3)cc1-2`, the negative logarithm of the IC50 (pIC50) in data set [1] (Table II) is 7.00. The compound further gave a pEC50 in the data set with P388D1 cells (Table II) of 7.10.

For the compound `O=c1[nH]nc2c3c(cccc13)NC(CO)=N2`, the pIC50 in data set [1] (Table I) is 7.59. The compound also gave a negative logarithm of the EC50 (pEC50) in the data set with P388D1 cells (Table I) of 6.44. For the compound `O=c1[nH]nc2c3c(cccc13)NC(CN1CCCCC1)=N2`, the pIC50 in data set [1] (Table I) was 7.72. In the data set with P388D1 cells (Table I), this compound had a pEC50 of 6.92. With `CCOP(=O)(NCc1ccc2c(c1)-c1n[nH]c(=O)c3cccc(c13)O2)OCC`, the pIC50 in data set [1] (Table II) was 6.56. With `CCN1CCN(Cc2ccc3c(c2)-c2n[nH]c(=O)c4cccc(c24)O3)CC1`, in data set [1] (Table II), the pIC50 is 7.22. The same compound showed a pEC50 in the data set on P388D1 cells (Table II) of 6.92.

For the compound `N=C(N)NCc1ccc2c(c1)-c1n[nH]c(=O)c3cccc(c13)O2`, the pIC50 in data set [1] (Table II) is 7.46. In the data set with P388D1 cells (Table II), this compound had a pEC50 of 6.00. As for `CN(C)c1ccc(/N=N/c2ccc(S(=O)(=O)NCc3ccc4c(c3)-c3n[nH]c(=O)c5cccc(c35)O4)cc2)cc1`, the negative-log IC50 (pIC50) in data set [1] (Table II) was 5.89. Consider `CC(=O)OC(C(=O)O)C(OC(C)=O)C(=O)NCc1ccc2c(c1)-c1n[nH]c(=O)c3cccc(c13)O2` (stereo not shown), for which the pIC50 in data set [1] (Table II) was 7.46. In the data set with P388D1 cells (Table II), this compound had a pEC50 of 5.68.

As for `O=c1[nH]nc2c3c(cccc13)Oc1ccc(CN3CCC(N4CCCC4)CC3)cc1-2` [drawing 63], in the data set with P388D1 cells (Table II), the pEC50 was 6.52. In the case of `O=c1[nH]nc2c3c(cccc13)Oc1ccc(COP(=O)(OCc3ccccc3)OCc3ccccc3)cc1-2` [Compound 60, Phosphoric acid dibenzyl ester 3-oxo-2,3-dihydro-7-oxa-1,2-diaza-benzo[de]anthracen-10-ylmethyl ester], the melting point fell in the range of 223 to 225 °C.

`O=c1[nH]nc2c3c(cccc13)N=C(CN1CCOCC1)N2`: the pIC50 in data set [1] (Table I) was 7.74. On the same count and under the same terms, to `NNC(=O)C1=CNc2c(Cl)ccc3c(=O)[nH]nc1c23` belongs 6.13.

Take `C=COC(=O)c1ccc2c(c1)-c1n[nH]c(=O)c3cccc(c13)O2`: in data set [1] (Table II), the negative logarithm of the IC50 (pIC50) is 7.05. As for `O=C(O)c1ccc2c(c1)-c1n[nH]c(=O)c3cccc(c13)O2`, the pIC50 in data set [1] (Table II) is 6.78. Consider `O=c1[nH]nc2c3c(cccc13)Oc1ccc(CN3CCNCC3)cc1-2`, for which, in data set [1] (Table II), the pIC50 is 7.32. The compound also had a negative logarithm of the EC50 (pEC50) with P388D1 cells (Table II) of 6.57. As to `O=C(NCc1ccc2c(c1)-c1n[nH]c(=O)c3cccc(c13)O2)C1CCCN1` (stereo not shown), the pIC50 in data set [1] (Table II) is 7.52. The pEC50 with P388D1 cells (Table II) is 7.10. Taken in the same sequence, the figures for `NCc1ccc2c(c1)-c1n[nH]c(=O)c3cccc(c13)O2` were 7.72 and 5.68. For the compound `NNC(=O)C1=CNc2cccc3c(=O)[nH]nc1c23`, the pIC50 in data set [1] (Table I) was 7.85. Also, the pEC50 in the data set on P388D1 cells (Table I) is 7.00. As for `O=C(CCP(=O)(OCc1ccccc1)OCc1ccccc1)OCc1ccc2c(c1)-c1n[nH]c(=O)c3cccc(c13)O2`, the pIC50 in data set [1] (Table II) was 6.38. For `O=c1[nH]nc2c3c(cccc13)Oc1ccc(COP(=O)(O)O)cc1-2`, the pIC50 in data set [1] (Table II) was 7.47. This compound gave a pEC50 in the data set on P388D1 cells (Table II) of 6.12. The compound `O=c1[nH]nc2c3c(cccc13)Oc1ccc(CN(CCO)CCO)cc1-2` [Compound 47, 10-{[Bis-(2-hydroxy-ethyl)-amino]-methyl}-2H-7-oxa-1,2-diaza-benzo[de]anthracen-3-one] registered a melting point of 222 to 225 °C. `O=C(O)C1=Cc2n[nH]c(=O)c3cccc(c23)N1`: the pIC50 in data set [1] (Table I) was 6.80. In the data set on P388D1 cells (Table I), this compound showed a pEC50 of 5.77. For `NC1=Nc2n[nH]c(=O)c3cccc(c23)N1`, in data set [1] (Table I), the pIC50 was 7.04. The negative logarithm of the EC50 (pEC50) with P388D1 cells (Table I) is 6.19. For the compound `CN(C)CCN(C)Cc1ccc2c(c1)-c1n[nH]c(=O)c3cccc(c13)O2` [10-{[(2-Dimethylamino-ethyl)-methyl-amino]-methyl}-2H-7-oxa-1,2-diaza-benzo[de]anthracen-3-one], the pIC50 in data set [1] (Table II) was 7.00. Also, the pEC50 with P388D1 cells (Table II) was 6.77.

Take `O=c1[nH]nc2c3c(cccc13)NC(CN1CCCC1)=N2`: in data set [1] (Table I), the pIC50 is 7.74. With `O=C(O)C(O)C(O)C(=O)NCc1ccc2c(c1)-c1n[nH]c(=O)c3cccc(c13)O2` (stereo not shown) [drawing 41], the pIC50 in data set [1] (Table II) is 7.68. Also, the pEC50 in the data set on P388D1 cells (Table II) was 5.28. For the compound `O=c1[nH]nc2c3c(cccc13)NC(CNCCCc1ccccc1)=N2`, the pIC50 in data set [1] (Table I) is 7.06. In the data set with P388D1 cells (Table I), this compound gave a pEC50 of 8.00. As to `CN(C)c1ccc(N=Nc2ccc(S(=O)(=O)NCc3ccc4c(c3)-c3n[nH]c(=O)c5cccc(c35)O4)cc2)cc1` [Compound 55, 4-(4-Dimethylamino-phenylazo)-N-(3-oxo-2,3-dihydro-7-oxa-1,2-diaza-benzo[de]anthracen-10-ylmethyl)-benzenesulfonamide], the melting point was over 300 °C. As to `O=c1[nH]nc2c3c(cccc13)Oc1ccc(CO)cc1-2`, the pIC50 in data set [1] (Table II) is 7.04. This compound had a pEC50 with P388D1 cells (Table II) of 6.39.

Turning to `NNC(=O)C1=Cc2n[nH]c(=O)c3cccc(c23)N1`, the pIC50 in data set [1] (Table I) is 7.59. The compound further showed a pEC50 in the data set with P388D1 cells (Table I) of 6.29.

In the case of `O=C(O)C(O)C(O)C(=O)NCc1ccc2c(c1)-c1n[nH]c(=O)c3cccc(c13)O2` (stereo not shown) [Compound 52, 2,3-Dihydroxy-N-(3-oxo-2,3-dihydro-7-oxa-1,2-diaza-benzo[de]anthracen-10-ylmethyl)-succinamic acid], the melting point lay in the range of 181 to 185 °C. `Oc1cccc2c(O)nccc12` [1,5-dihydroxyisoquinoline]: in data set [2], the “reduction in infarct size” value is 38-48%. As for `CN(C)CC(=O)OCc1ccc2c(c1)-c1n[nH]c(=O)c3cccc(c13)O2` [drawing 54], the pIC50 in data set [1] (Table II) was 6.90. In the case of `O=c1[nH]nc2c3c(cccc13)NC=N2`, the pIC50 in data set [1] (Table I) is 7.41. Also, the pEC50 in the data set with P388D1 cells (Table I) was 6.46.

On to `CN(C)CC(=O)OCc1ccc2c(c1)-c1n[nH]c(=O)c3cccc(c13)O2` [Compound 59, Dimethylamino-acetic acid 3-oxo-2,3-dihydro-7-oxa-1,2-diaza-benzo[de]anthracen-10-ylmethyl ester], for which the melting point fell in the range of 227 to 230 °C. Turning to `O=c1[nH]nc2c3c(cccc13)Oc1ccc(CN(CCO)CCO)cc1-2` [drawing 52], in data set [1] (Table II), the pIC50 is 7.42.

Regarding `CN1CCN(Cc2ccc3c(c2)-c2n[nH]c(=O)c4cccc(c24)O3)CC1` [drawing 46], the pIC50 in data set [1] (Table II) was 7.13. In addition, the negative-log EC50 (pEC50) with P388D1 cells (Table II) is 6.89. Taken in the same sequence, the figures for `O=c1[nH]nc2c3c(cccc13)Oc1ccc(COP(=O)(OCc3ccccc3)OCc3ccccc3)cc1-2` [drawing 55] were 7.07 and 6.28. Take `CN(C)CC1=Nc2n[nH]c(=O)c3cccc(c23)N1`: the pIC50 in data set [1] (Table I) was 7.72. In the data set on P388D1 cells (Table I), the pEC50 is 6.89. In the case of `O=c1[nH]nc2c3c(cccc13)Oc1ccc(CN3CCOCC3)cc1-2`, the pIC50 in data set [1] (Table II) was 7.17. For the same compound, the pEC50 in the data set on P388D1 cells (Table II) was 6.52. With `NNC(=O)C1=Cc2n[nH]c(=O)c3ccc(NN)c(c23)N1`, the pIC50 in data set [1] (Table I) is 5.55. Regarding `CC1=Cc2n[nH]c(=O)c3ccc(Cl)c(c23)N1`, the pIC50 in data set [1] (Table I) is 6.92.

The record behind these values is patent US20120309717A1, “COMPOUNDS, METHODS AND PHARMACEUTICAL COMPOSITIONS FOR INHIBITING PARP” (EISAI INC., priority 2003, published 2012).
